In patent US12329733B2, “Acetyl-leucine or a pharmaceutically acceptable salt thereof for improved mobility and cognitive function” (INTRABIO LTD., priority 2016, dated 2025):

Assays:
[1] = system: subjects with no apparent dysfunction in cognitive ability or movement/balance; assay: balancing ability (eyes closed, non-dominant foot lifted, timed); type: in vivo, human
Method: Due to reported improvement in balance on treatment we measured balancing ability at the end of the treatment period and at the end of the washout period. This assessment required the subject to close their eyes and lift their non-dominant foot around 6 inches off the ground. The subject was then timed to see how long they could remain upright and without significant wobbles. This was repeated three times, and the values averaged. […] This assessment required the subject to close their eyes and lift their non-dominant foot around 6 inches off the ground. The subject was then timed to see how long they could remain upright and without significant wobbles. This was repeated three times, and the values averaged. We measured balancing ability at the end of the treatment period and at the end of the washout period. This assessment required the subject to close their eyes and lift their non-dominant foot around 6 inches off the ground. The subject was then timed to see how long they could remain upright and without significant wobbles. This was repeated three times, and the values averaged.

[2] = system: subject suffering from imbalance and gait disorder; assay: home setting “get up and go test”; type: in vivo, human; settings: Example 1: person, 4.5 g/day
Method: “Mobility” refers to the ability of a subject to move. Mobility may be assessed in the elderly using one or more simple tests. As illustrated in the Examples, the “get up and go” test is a simple test capable of measuring mobility. In this test, the speed of sit to stand and walking to a target point is analysed, suitably as described in the Examples. For example, the test may begin with the subject sitting in a chair. At the start of the stop clock, the subject should rise unaided and walk to a target point. The target point may be 2-10 m away, optionally 4-6 m away. The stop clock should be stopped upon the subject reaching the target point. Any change in mobility, for example, over time or through treatment, can be monitored by using the “get up and go” test at two or more time points and comparing the results, again as illustrated in the Examples. Other suitable tests for measuring mobility include those used in the Elderly Mobility Scale (EMS), a 20-point validated assessment tool for the assessment of frail elderly subjects (9), considering locomotion, balance and key position changes. The ability of the subject to move was measured in a home setting “get up and go test”. This test involved the subject rising unaided from their chair and walking the length of their living area to their kitchen. […]

vertigo = settings: clinical results reported by various authors; cited from earlier work
cerebellar patients = settings: cited from earlier work
[3] = system: subjects with no apparent dysfunction in cognitive ability or movement/balance; assay: Psychomotor Vigilance Task (Mind Metrics App, 10 trials per test); type: in vivo, human; settings: for Statistically significant improvement in PVT performance on treatment?: 5 g/day; for % change in Reaction Time: on-treatment vs baseline
Source text: For example, the Psychomotor Vigilance Task (PVT) is a sustained-attention, reaction-timed task that measures the speed with which subjects respond to a visual stimulus. The subject monitors a screen and presses the screen as quickly as possible upon the appearance of visual stimuli. The visual stimuli will then disappear and reappear (at irregular time intervals) e.g., 10 times over the course of the test, with the subject touching the screen as quickly as possible upon each reappearance. Test performance is quantified from an average of the e.g. 10 reaction times. The subject's reaction speed and alertness was assessed using the Mind Metrics App (Psychomotor Vigilance Task, 10 trials per test). The Psychomotor Vigilance Task (PVT) is a sustained-attention, reaction-timed task that measures the speed with which subjects respond to a visual stimulus. The subject is required to monitor a screen and press the screen as quickly as possible upon the appearance of visual stimuli. The visual stimuli will then disappear and reappear (at irregular time intervals) 10 times over the course of the test, with the subject touching the screen as quickly as possible upon each reappearance. Test performance is quantified from an average of the 10 reaction times. […] The subject was assessed for 2 weeks prior to taking acetyl-leucine, which constitutes the baseline period.

[4] = system: patients with postural imbalance / gait disorder; subjects; assay: clinical examination and patient/family reports of balance, gait, dizziness and falls; type: in vivo, human; settings: for balance (subjective): 5 g/day
Source text: In addition to the mobility assessments disclosed above, mobility in a subject having a mobility disorder associated with ageing may be tested, for example, using assessments of balance and/or through monitoring the number of falls experienced by the subject.

[5] = system: patient with postural imbalance; assay: Scale for the Assessment and Rating of Ataxia (SARA); type: in vivo, human; settings: Example 6: 5 g/day for 1 month; baseline 6.5/40
Source text: (§1) The patient was examined clinically by means of the following clinical assessments: maximal distance to walk; timed Up and Go test; Scale for the Assessment and Rating of Ataxia (SARA).

[6] = system: patient with postural imbalance; assay: timed Up and Go test (stance up-and-go test); type: in vivo, human; settings: Example 6: 5 g/day for 1 month; baseline 25.4 sec
Source text: as §1

CC(=O)NC(CC(C)C)C(=O)O (racemic) [acetyl-DL-leucine]
time able to remain balanced (average of 3 tests) ([1]; Example 7: 66 M, end of washout period): 4.01 s | time able to remain balanced (average of 3 tests) ([1]; Example 7: 66 M, last day of treatment period): 7.27 s | time able to remain balanced (average of 3 tests) ([1]; Example 9: 55 F, end of washout period): 8 s | time able to remain balanced (average of 3 tests) ([1]; Example 9: 55 F, last day of treatment period): 12 s | time able to remain balanced (average of 3 tests) ([1]; Example 11: 53 M, end of washout period): 3.1 s | time able to remain balanced (average of 3 tests) ([1]; Example 11: 53 M, last day of treatment period): 7.9 s | faster than pre-treatment in get up and go test [2]: 25% | average time taken to rise unaided from chair and walk the length of living area to kitchen ([2]; seven consecutive days once treatment had started, prior to treatment 40±3 seconds): 30 ± 2 s | cases with improvement in vertigo symptomology (vertigo): more than 95% | cerebellar symptoms (cerebellar patients; case series, ref (5)): Improvement of cerebellar symptoms | benefit in another case series (cerebellar patients; ref (6)): did not find benefit | Statistically significant improvement in PVT performance on treatment? ([3]; Example 7: 66 M, p<0.0001): significant improvement in Psychomotor Vigilance Task performance | Statistically significant improvement in PVT performance on treatment? ([3]; Example 7: 66 M, p<0.0001, listed as acetyl-leucine): Yes | % change in Reaction Time ([3]; Example 7: 66 M): −30.86% | Statistically significant improvement in PVT performance on treatment? ([3]; Example 8: 29 M, p<0.05): small but statistically significant improvement | Statistically significant improvement in PVT performance on treatment? ([3]; Example 8: 29 M, p<0.05, listed as acetyl-leucine): Yes | % change in Reaction Time ([3]; Example 8: 29 M): −3.593% | Statistically significant improvement in PVT performance on treatment? ([3]; Example 9: 55 F): not associated with significant changes | Statistically significant improvement in PVT performance on treatment? ([3]; Example 9: 55 F, listed as acetyl-leucine): No | % change in Reaction Time ([3]; Example 9: 55 F): 1.408% | Statistically significant improvement in PVT performance on treatment? ([3]; Example 10: […]): small, non-statistically significant decline | Statistically significant improvement in PVT performance on treatment? ([3]; Example 10: […], listed as acetyl-leucine): No | % change in Reaction Time ([3]; Example 10: […]): 8.13% | Statistically significant improvement in PVT performance on treatment? ([3]; Example 11: 53 M, p<0.01): statistically significant improvements | Statistically significant improvement in PVT performance on treatment? ([3]; Example 11: 53 M, p<0.01, listed as acetyl-leucine): Yes | % change in Reaction Time ([3]; Example 11: 53 M): −10.24% | Statistically significant improvement in PVT performance on treatment? ([3]; Example 12: 48 F, p<0.001): statistically significant improvements | Statistically significant improvement in PVT performance on treatment? ([3]; Example 12: 48 F, p<0.001, listed as acetyl-leucine): Yes | % change in Reaction Time ([3]; Example 12: 48 F): −7.474% | balance after ceasing treatment ([4]; Example 1: after one-month course ceased): remained good for two weeks then deteriorated | walking confidence / balance ([4]; Example 1: person, 4.5 g/day, by 7-10 days of treatment): more confident walking due to improved balance | improvements of first and second months, on further treatment ([4]; Example 1: remains on 4.5 g per day): have continued | improvements noticed in first month, on second treatment ([4]; Example 1: second one-month course, 4.5 g/day): rapidly returned | dizziness symptoms ([4]; Example 2: person, balance disorder/senile gait disorder, 3 g/day first week then 5 g/day, Day 14): improvement of dizziness symptoms | frequency of falls ([4]; Example 2: person, 3 g/day first week then 5 g/day, Day 14): significant reduction in the frequency of falls | hypokinetic-rigid syndrome ([4]; Example 2: person, Day 14): No change | dizziness symptoms after suspension of treatment ([4]; Example 2: treatment suspended Day 56, re-evaluated Day 62): increase of dizziness symptoms two days after suspension of treatment | time when improvement began ([4]; Example 3: person): second week of treatment | dizziness and imbalance (spouse feedback) ([4]; Example 3: person, 3 g/day one week then 5 g/day, 22 days after beginning treatment): significant reduction of dizziness and imbalance | gait (spouse feedback) ([4]; Example 3: person, 22 days after beginning treatment): significant improvement of gait | gait and imbalance (patient and child report) ([4]; Example 4: person, 3 g/day one week then 5 g/day, 3 weeks after beginning treatment): significantly improved | clinical examination of gait and balance ([4]; Example 5: Day 42, 3 gram per day): significant improvement of gait and balance | spouse report on re-evaluation ([4]; Example 5: Day 42, 3 gram per day restarted Day 28): dramatic improvement with impact on functioning and quality of living | falls ([4]; Example 5: Day 42, four falls over three months before Day 0): No further falls were reported | symptoms after medication was stopped ([4]; Example 5: medication stopped after two weeks): worsening of symptoms | gait (patient and spouse report) ([4]; Example 5: patient, progressive gait disorder, 3 gram per day for two weeks): considerable improvement of gait | improvements on lower dosage ([4]; Example 6: 1 g/1 g/1 g for over 4 months): remained unchanged | sway ([4]; Example 6: 5 g/day for 1 month): became visibly calmer | stance with feet together, tandem stance and gait ([4]; Example 6: 5 g/day for 1 month, tandem stance and gait not possible at baseline): possible with increased omnidirectional sway | postural stability (subjective) ([4]; Example 6: 5 g/day for 1 month, walking and stairs): subjectively more postural stable | frequency of falls ([4]; Example 6: current state on 1 g/1 g/1 g, 2-3 per month before treatment): 0-1 /month | falls during therapy period ([4]; Example 6: therapy period of 1 month, 2-3 per month before): did not record any falls | balance (subjective) ([4]; Example 7: 66 M): improvement in their balance | balance (subjective) ([4]; Example 8: 29 M): no difference in balance | SARA [5]: 2 /40 | stance up-and-go test [6]: 21.2 s
